# Assay results: patent US11168086B2, “Methods of synthesizing pyrazine compounds” (Hoffmann-La Roche Inc., priority 2015, dated 2021)
# Test system: HBV
# Experiment: HBV inhibition assay: anti-HBV activity in vitro in HepG2.2.15 cells (extracellular HBV DNA by qPCR)
# Format: cell-based
# Conditions: Hepatitis B virus, 120 h, five days after compound treatment, extracellular HBV DNA in culture supernatant by qPCR, concentration at which HBV replication is inhibited by 50%
# Summary of the method: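 HepG2.2.15 cells (stably carrying HBV genome) treated with half-log serially diluted compounds at 0.5% DMSO final for five days. Extracellular HBV DNA in supernatant quantified by qPCR after Proteinase K digestion; EC50 is concentration giving 50% inhibition of replication.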
row,Compound,EC50
1,"C[C@H]1Cn2ncc(N3CCNC3=O)c2CN1C(=O)Nc1cc(F)c(F)c(C(F)F)c1 [Example 373, (6S)—N-[3-(difluoromethyl)-4,5-difluoro-phenyl]-6-methyl-3-(2-oxoimidazolidin-1-yl)-6,7-dihydro-4H-pyrazolo[1,5-a]pyrazine-5-carboxamide]",0.022 µM
2,"C[C@H]1Cn2ncc(N3C[C@H](O)CC3=O)c2CN1C(=O)Nc1cc(F)c(F)c(F)c1 [Example 376, (6S)-3-[(4R)-4-hydroxy-2-oxo-pyrrolidin-1-yl]-6-methyl-N-(3,4,5-trifluorophenyl)-6,7-dihydro-4H-pyrazolo[1,5-a]pyrazine-5-carboxamide]",0.088 µM
3,"C[C@H]1Cn2ncc(N3C[C@@H](O)CC3=O)c2CN1C(=O)Nc1cc(F)c(F)c(F)c1 [Example 377, (6S)-3-[(4S)-4-hydroxy-2-oxo-pyrrolidin-1-yl]-6-methyl-N-(3,4,5-trifluorophenyl)-6,7-dihydro-4H-pyrazolo[1,5-a]pyrazine-5-carboxamide]",0.081 µM
4,"CO[C@H]1CC(=O)N(c2cnn3c2CN(C(=O)Nc2cc(F)c(F)c(F)c2)[C@@H](C)C3)C1 [Example 378, (6S)-3-[(4S)-4-methoxy-2-oxo-pyrrolidin-1-yl]-6-methyl-N-(3,4,5-trifluorophenyl)-6,7-dihydro-4H-pyrazolo[1,5-a]pyrazine-5-carboxamide]",0.028 µM
5,"CO[C@@H]1CC(=O)N(c2cnn3c2CN(C(=O)Nc2cc(F)c(F)c(F)c2)[C@@H](C)C3)C1 [Example 379, (6S)-3-[(4R)-4-methoxy-2-oxo-pyrrolidin-1-yl]-6-methyl-N-(3,4,5-trifluorophenyl)-6,7-dihydro-4H-pyrazolo[1,5-a]pyrazine-5-carboxamide]",0.038 µM
6,"C[C@H]1Cn2ncc(N3C[C@@H](Oc4ncccn4)CC3=O)c2CN1C(=O)Nc1cc(F)c(F)c(F)c1 [Example 381, (6S)-6-methyl-3-[(4S)-2-oxo-4-pyrimidin-2-yloxy-pyrrolidin-1-yl]-N-(3,4,5-trifluorophenyl)-6,7-dihydro-4H-pyrazolo[1,5-a]pyrazine-5-carboxamide]",0.005 µM
7,"C[C@H]1Cn2ncc(N3C[C@@H](Oc4ncc(F)cn4)CC3=O)c2CN1C(=O)Nc1cc(F)c(F)c(F)c1 [Example 382, (6S)-3-[(4S)-4-(5-fluoropyrimidin-2-yl)oxy-2-oxo-pyrrolidin-1-yl]-6-methyl-N-(3,4,5-trifluorophenyl)-6,7-dihydro-4H-pyrazolo[1,5-a]pyrazine-5-carboxamide]",0.016 µM
8,"C[C@H]1Cn2ncc(N3CC(C(=O)N4CCOCC4)CC3=O)c2CN1C(=O)Nc1cc(F)c(F)c(F)c1 (stereo partly drawn) [Example 386, (6S)-6-methyl-3-[4-(morpholine-4-carbonyl)-2-oxo-pyrrolidin-1-yl]-N-(3,4,5-trifluorophenyl)-6,7-dihydro-4H-pyrazolo[1,5-a]pyrazine-5-carboxamide]",0.088 µM
9,"C[C@H]1Cn2ncc(N3CC(C(=O)N(C)C)CC3=O)c2CN1C(=O)Nc1cc(F)c(F)c(F)c1 (stereo partly drawn) [Example 390, (6S)-3-[4-(dimethylcarbamoyl)-2-oxo-pyrrolidin-1-yl]-6-methyl-N-(3,4,5-trifluorophenyl)-6,7-dihydro-4H-pyrazolo[1,5-a]pyrazine-5-carboxamide]",0.103 µM
10,"C[C@H]1Cn2ncc(N3CC(C(=O)N4CCCC4)CC3=O)c2CN1C(=O)Nc1cc(F)c(F)c(F)c1 (stereo partly drawn) [Example 391, (6S)-6-methyl-3-[2-oxo-4-(pyrrolidine-1-carbonyl)pyrrolidin-1-yl]-N-(3,4,5-trifluorophenyl)-6,7-dihydro-4H-pyrazolo[1,5-a]pyrazine-5-carboxamide]",0.074 µM
11,"C[C@H]1Cn2ncc(N3CC(C(=O)Nc4ncco4)CC3=O)c2CN1C(=O)Nc1cc(F)c(F)c(F)c1 (stereo partly drawn) [Example 392, (6S)-6-methyl-3-[4-(oxazol-2-ylcarbamoyl)-2-oxo-pyrrolidin-1-yl]-N-(3,4,5-trifluorophenyl)-6,7-dihydro-4H-pyrazolo[1,5-a]pyrazine-5-carboxamide]",0.088 µM
12,"C[C@H]1Cn2ncc(N3CC(C(=O)N4CCOC(C)(C)C4)CC3=O)c2CN1C(=O)Nc1cc(F)c(F)c(F)c1 (stereo partly drawn) [Example 393, (6S)-3-[4-(2,2-dimethylmorpholine-4-carbonyl)-2-oxo-pyrrolidin-1-yl]-6-methyl-N-(3,4,5-trifluorophenyl)-6,7-dihydro-4H-pyrazolo[1,5-a]pyrazine-5-carboxamide]",0.07 µM
13,"C[C@@H]1CN(C(=O)C2CC(=O)N(c3cnn4c3CN(C(=O)Nc3cc(F)c(F)c(F)c3)[C@@H](C)C4)C2)CCO1 (stereo partly drawn) [Example 394, (6S)-6-methyl-3-[4-[(2R)-2-methylmorpholine-4-carbonyl]-2-oxo-pyrrolidin-1-yl]-N-(3,4,5-trifluorophenyl)-6,7-dihydro-4H-pyrazolo[1,5-a]pyrazine-5-carboxamide]",0.065 µM
14,"C[C@H]1CN(C(=O)C2CC(=O)N(c3cnn4c3CN(C(=O)Nc3cc(F)c(F)c(F)c3)[C@@H](C)C4)C2)CCO1 (stereo partly drawn) [Example 395, (6S)-6-methyl-3-[4-[(2S)-2-methylmorpholine-4-carbonyl]-2-oxo-pyrrolidin-1-yl]-N-(3,4,5-trifluorophenyl)-6,7-dihydro-4H-pyrazolo[1,5-a]pyrazine-5-carboxamide]",0.088 µM
15,"C[C@@H]1CN(C(=O)C2CC(=O)N(c3cnn4c3CN(C(=O)Nc3cc(F)c(F)c(F)c3)[C@@H](C)C4)C2)C[C@@H](C)O1 (stereo partly drawn) [Example 396, (6S)-3-[4-[trans-2,6-dimethylmorpholine-4-carbonyl]-2-oxo-pyrrolidin-1-yl]-6-methyl-N-(3,4,5-trifluorophenyl)-6,7-dihydro-4H-pyrazolo[1,5-a]pyrazine-5-carboxamide]",0.058 µM
16,"C[C@@H]1CN(C(=O)C2CC(=O)N(c3cnn4c3CN(C(=O)Nc3cc(F)c(F)c(F)c3)[C@@H](C)C4)C2)C[C@H](C)O1 (stereo partly drawn) [Example 397, (6S)-3-[4-[cis-2,6-dimethylmorpholine-4-carbonyl]-2-oxo-pyrrolidin-1-yl]-6-methyl-N-(3,4,5-trifluorophenyl)-6,7-dihydro-4H-pyrazolo[1,5-a]pyrazine-5-carboxamide]",0.06 µM
17,"C[C@H]1Cn2ncc(N3CC(C(=O)N4CCC(F)(F)C4)CC3=O)c2CN1C(=O)Nc1cc(F)c(F)c(F)c1 (stereo partly drawn) [Example 398, (6S)-3-[4-(3,3-difluoropyrrolidine-1-carbonyl)-2-oxo-pyrrolidin-1-yl]-6-methyl-N-(3,4,5-trifluorophenyl)-6,7-dihydro-4H-pyrazolo[1,5-a]pyrazine-5-carboxamide]",0.08 µM
18,"C[C@H]1Cn2ncc(N3CC(C(=O)N(C)c4ncco4)CC3=O)c2CN1C(=O)Nc1cc(F)c(F)c(F)c1 (stereo partly drawn) [Example 399, (6S)-6-methyl-3-[4-[methyl(oxazol-2-yl)carbamoyl]-2-oxo-pyrrolidin-1-yl]-N-(3,4,5-trifluorophenyl)-6,7-dihydro-4H-pyrazolo[1,5-a]pyrazine-5-carboxamide]",0.019 µM
19,"C[C@H]1Cn2ncc(N3CC(C)(C(=O)N4CCC(F)(F)C4)CC3=O)c2CN1C(=O)Nc1cc(F)c(F)c(F)c1 (stereo partly drawn) [Example 400, (6S)-3-[4-(3,3-difluoropyrrolidine-1-carbonyl)-4-methyl-2-oxo-pyrrolidin-1-yl]-6-methyl-N-(3,4,5-trifluorophenyl)-6,7-dihydro-4H-pyrazolo[1,5-a]pyrazine-5-carboxamide]",0.094 µM
20,"C[C@H]1Cn2ncc(N3CC(C)(C(=O)N4CCC(F)(F)CC4)CC3=O)c2CN1C(=O)Nc1cc(F)c(F)c(F)c1 (stereo partly drawn) [Example 401, (6S)-3-[4-(4,4-difluoropiperidine-1-carbonyl)-4-methyl-2-oxo-pyrrolidin-1-yl]-6-methyl-N-(3,4,5-trifluorophenyl)-6,7-dihydro-4H-pyrazolo[1,5-a]pyrazine-5-carboxamide]",0.088 µM
21,"Cc1nnc(C2(C)CC(=O)N(c3cnn4c3CN(C(=O)Nc3cc(F)c(F)c(F)c3)[C@@H](C)C4)C2)o1 (stereo partly drawn) [Example 403, (6S)-6-methyl-3-[4-methyl-4-(5-methyl-1,3,4-oxadiazol-2-yl)-2-oxo-pyrrolidin-1-yl]-N-(3,4,5-trifluorophenyl)-6,7-dihydro-4H-pyrazolo[1,5-a]pyrazine-5-carboxamide]",0.031 µM
22,"C[C@H]1Cn2ncc(N3CC(C)(c4nnco4)CC3=O)c2CN1C(=O)Nc1cc(F)c(F)c(F)c1 (stereo partly drawn) [Example 404, (6S)-6-methyl-3-[4-methyl-4-(1,3,4-oxadiazol-2-yl)-2-oxo-pyrrolidin-1-yl]-N-(3,4,5-trifluorophenyl)-6,7-dihydro-4H-pyrazolo[1,5-a]pyrazine-5-carboxamide]",0.042 µM
23,"Cc1noc(C2(C)CC(=O)N(c3cnn4c3CN(C(=O)Nc3cc(F)c(F)c(F)c3)[C@@H](C)C4)C2)n1 (stereo partly drawn) [Example 405, (6S)-6-methyl-3-[4-methyl-4-(3-methyl-1,2,4-oxadiazol-5-yl)-2-oxo-pyrrolidin-1-yl]-N-(3,4,5-trifluorophenyl)-6,7-dihydro-4H-pyrazolo[1,5-a]pyrazine-5-carboxamide]",0.01 µM
24,"Cc1nc(C2(C)CC(=O)N(c3cnn4c3CN(C(=O)Nc3cc(F)c(F)c(F)c3)[C@@H](C)C4)C2)no1 (stereo partly drawn) [Example 406, (6S)-6-methyl-3-[4-methyl-4-(5-methyl-1,2,4-oxadiazol-3-yl)-2-oxo-pyrrolidin-1-yl]-N-(3,4,5-trifluorophenyl)-6,7-dihydro-4H-pyrazolo[1,5-a]pyrazine-5-carboxamide]",0.006 µM
25,"C[C@H]1Cn2ncc(N3C[C@@H](c4cnco4)OCC3=O)c2CN1C(=O)Nc1cc(F)c(F)c(F)c1 [Example 407, (6S)-6-methyl-3-[(2S)-2-oxazol-5-yl-5-oxo-morpholin-4-yl]-N-(3,4,5-trifluorophenyl)-6,7-dihydro-4H-pyrazolo[1,5-a]pyrazine-5-carboxamide]",0.024 µM
26,"Cc1noc(C2CN(c3cnn4c3CN(C(=O)Nc3cc(F)c(F)c(F)c3)[C@@H](C)C4)C(=O)O2)n1 (stereo partly drawn) [Example 408, (6S)-6-methyl-3-[5-(3-methyl-1,2,4-oxadiazol-5-yl)-2-oxo-oxazolidin-3-yl]-N-(3,4,5-trifluorophenyl)-6,7-dihydro-4H-pyrazolo[1,5-a]pyrazine-5-carboxamide]",0.022 µM
